For assay [1], the target named is T1, human c-20S β5c (Homo sapiens, UniProt P28074).
T1 sequence (P28074 60-263): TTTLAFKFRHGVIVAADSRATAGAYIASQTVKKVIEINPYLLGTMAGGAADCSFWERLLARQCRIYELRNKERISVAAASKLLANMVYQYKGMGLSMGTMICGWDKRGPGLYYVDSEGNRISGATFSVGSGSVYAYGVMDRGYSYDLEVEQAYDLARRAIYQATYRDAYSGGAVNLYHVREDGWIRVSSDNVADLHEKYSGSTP
T1 sequence (P20618 29-241 partner): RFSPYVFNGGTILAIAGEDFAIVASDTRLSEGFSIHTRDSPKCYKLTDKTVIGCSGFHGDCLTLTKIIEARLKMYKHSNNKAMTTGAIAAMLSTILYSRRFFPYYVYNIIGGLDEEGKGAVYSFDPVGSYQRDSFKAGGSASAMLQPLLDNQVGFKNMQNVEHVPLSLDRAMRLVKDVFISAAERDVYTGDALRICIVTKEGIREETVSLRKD
The assay is described as follows: fluorogenic peptidase assay. To be noted: 25 μM suc-LLVY-AMC; 0.2 nM c-20S; 0.02% SDS; pH 7.5; β5c active site. It is filed as biochemical.

Assay [2] concerns the target T2, human i-20S β5i (Homo sapiens, UniProt P28062).
T2 sequence (P28062 73-276): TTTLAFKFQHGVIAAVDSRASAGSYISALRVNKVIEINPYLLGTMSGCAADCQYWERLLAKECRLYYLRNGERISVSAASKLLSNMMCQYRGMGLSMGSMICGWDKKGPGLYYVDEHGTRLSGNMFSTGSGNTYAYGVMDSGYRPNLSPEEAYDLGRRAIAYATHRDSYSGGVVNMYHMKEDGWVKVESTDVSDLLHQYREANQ
T2 sequence (P20618 29-241 partner): T1 sequence (P20618 29-241 partner)
The assay is described as follows: fluorogenic peptidase assay. Format: biochemical. The note with it: 15 μM Ac-ANW-AMC; 0.4 nM i-20S; 0.02% SDS; pH 7.5; β5i active site.

Assay [3] deals with T1, human c-20S β5c. The note with it: read-out: IC50 (nM) c-20S; inhibitor.
The subject of assay [4] is Plasmodium falciparum Pf3D7. The assay is described as follows: microbe, parasite or virus in culture. The arrangement: species or system P. falciparum 3D7 in human red blood cells. To be noted: Erythrocyte, read-out: EC50 (nM) Pf3D7.
Assay [5] concerns the target T2, human i-20S β5i. To be noted: read-out: IC50 (nM) i-20S; inhibitor.
Assay [6] addresses T3, Pf20S β5 (Plasmodium falciparum, UniProt Q8IJT1).
T3 sequence (Q8IJT1 61-271): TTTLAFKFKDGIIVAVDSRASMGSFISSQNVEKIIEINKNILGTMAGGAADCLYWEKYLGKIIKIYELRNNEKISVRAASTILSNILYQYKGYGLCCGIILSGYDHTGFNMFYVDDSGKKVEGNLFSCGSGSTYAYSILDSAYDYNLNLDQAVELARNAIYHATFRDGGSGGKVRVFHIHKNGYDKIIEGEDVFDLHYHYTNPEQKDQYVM
T3 sequence (A0A5K1K7U1 29-240 partner): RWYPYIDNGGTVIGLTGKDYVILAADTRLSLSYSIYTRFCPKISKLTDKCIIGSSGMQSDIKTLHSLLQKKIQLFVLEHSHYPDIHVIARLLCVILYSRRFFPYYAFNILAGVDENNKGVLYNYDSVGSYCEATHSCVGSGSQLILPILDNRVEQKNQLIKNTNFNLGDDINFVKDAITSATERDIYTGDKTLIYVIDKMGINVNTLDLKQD
The assay is described as follows: biochemical.

For assay [7], the target named is T3, Pf20S β5. Description: fluorogenic peptidase assay. It is filed as biochemical.

Read-outs that look alike come from different tables or passages of the source. Where only a bound is given, the exact number is not on record here.

A word on the IC50: it is the midpoint of a concentration-inhibition curve. As to `CC(C)(C)NC(=O)C[C@H](NC(=O)CCCNC(=O)OC(C)(C)C)C(=O)NCCNC(=O)c1cc(-c2ccccc2F)ccc1F` [PI01], the IC50 is 2000 nM at human c-20S β5c [1] and 200 ± 46 nM against human i-20S β5i [2].

In general, EC50 refers to the midpoint of the concentration-response curve. As to `C[C@H]1[C@H](OC(=O)CCC(=O)N[C@@H](CC(=O)NC(C)(C)C)C(=O)NCCNC(=O)c2cc(-c3ccccc3F)ccc2F)O[C@@H]2O[C@@]3(C)CC[C@H]4[C@H](C)CC[C@@H]1[C@@]24OO3` [WZ-13, (3R,5aS,6R,8aS,9R,10S,12R,12aR)-3,6,9-trimethyldecahydro-12H-3,12-epoxy[1,2]dioxepino[4,3-i]isochromen-10-yl 4-(((S)-4-(tert-butylamino)-1-((2-(2',4-difluoro-[1,1'-biphenyl]-3-carboxamido)ethyl)amino)-1,4-dioxobutan-2-yl)amino)-4-oxobutanoate], the figures for the IC50 at human c-20S β5c [3], on human i-20S β5i [5] and against Pf20S β5 [6] were 440 ± 110 nM, 158 ± 50 nM and 5.5 ± 3.8 nM, respectively. Moreover, in assay [4], the EC50 was determined as 2.5 ± 0.7 nM.

As for `C[C@H]1[C@@H](CC(=O)NCCCC(=O)N[C@@H](CC(=O)NC(C)(C)C)C(=O)NCCNC(=O)c2cc(-c3ccccc3F)ccc2F)O[C@@H]2O[C@@]3(C)CC[C@H]4[C@H](C)CC[C@@H]1[C@@]24OO3` [ATZ4], the IC50 against human c-20S β5c [1] was found to be 890 ± 140 nM; on human i-20S β5i [2] it was 200 ± 57 nM.

Consider `C[C@H]1[C@@H](CC(=O)NCC(=O)N[C@@H](CC(=O)NC(C)(C)C)C(=O)NCCNC(=O)c2cc(-c3ccccc3F)ccc2F)O[C@@H]2O[C@@]3(C)CC[C@H]4[C@H](C)CC[C@@H]1[C@@]24OO3` [ATZ2], for which the IC50 at human c-20S β5c [1] was found to be 210 ± 40 nM; on human i-20S β5i [2] it was 73 ± 19 nM.

For the compound `C[C@H]1[C@H](OC(=O)CCC(=O)O)O[C@@H]2O[C@@]3(C)CC[C@H]4[C@H](C)CC[C@@H]1[C@@]24OO3` [Artesunate], the IC50 at human c-20S β5c [3], on human i-20S β5i [5] and on Pf20S β5 [6] was more than 100000 nM in each case. Also, the EC50 in assay [4] was found to be 6.2 ± 4 nM.

As for `C[C@H]1[C@H](OC(=O)CCC(=O)N[C@@H](CC(=O)NC(C)(C)C)C(=O)NCCNC(=O)c2cc(-c3ccccc3)ccn2)O[C@@H]2O[C@@]3(C)CC[C@H]4[C@H](C)CC[C@@H]1[C@@]24OO3` [WZ-06], it took 6 nM to reach half-maximal inhibition on Pf20S β5 [7] (IC50).

As to `C[C@H]1[C@@H](CC(=O)NCCC(=O)N[C@@H](CC(=O)NC(C)(C)C)C(=O)NCCNC(=O)c2cc(-c3ccccc3F)ccc2F)O[C@@H]2O[C@@]3(C)CC[C@H]4[C@H](C)CC[C@@H]1[C@@]24OO3` [ATZ3], the IC50 came to 2.4 ± 0.4 nM against Pf20S β5 [7] and 260 ± 51 nM against human i-20S β5i [2].

For `C[C@H]1[C@@H](CC(=O)N[C@@H](CC(=O)NC(C)(C)C)C(=O)NCCNC(=O)c2cc(-c3ccccc3F)ccc2F)O[C@@H]2O[C@@]3(C)CC[C@H]4[C@H](C)CC[C@@H]1[C@@]24OO3` [ATZ1], the IC50 on Pf20S β5 [7] turned out to be 63.2 ± 11 nM; against human c-20S β5c [1], 3600 nM; against human i-20S β5i [2], 650 ± 94 nM.

At Pf20S β5 [7], `C[C@H]1[C@H](OC(=O)CCC(=O)N[C@@H](CC(=O)NC(C)(C)C)C(=O)NCCNC(=O)c2cc(-c3ccccc3F)ccc2F)O[C@@H]2O[C@@]3(C)CC[C@H]4[C@H](C)CC[C@@H]1[C@@]24OO3` [WZ-13] registered an IC50 of 2 nM.

Take `CC(C)(C)NC(=O)C[C@H](NC(=O)CCC(=O)O)C(=O)NCCNC(=O)c1cc(-c2ccccc2F)ccc1F` [WZ-20, (S)-4-((4-(tert-butylamino)-1-((2-(2',4-difluoro-[1,1'-biphenyl]-3-carboxamido)ethyl)amino)-1,4-dioxobutan-2-yl)amino)-4-oxobutanoic acid]: the IC50 at human c-20S β5c [3] is 34300 nM; on human i-20S β5i [5] it was 3490 nM; on Pf20S β5 [6] it was 6 ± 0.005 nM. For the same compound, the EC50 in assay [4] worked out at 50.8 ± 0.7 nM.

In the case of `C[C@H]1[C@H](OC(=O)CCC(=O)N[C@@H](CC(=O)NC(C)(C)C)C(=O)NCCNC(=O)c2cc(-c3ccccc3)ccn2)O[C@@H]2O[C@@]3(C)CC[C@H]4[C@H](C)CC[C@@H]1[C@@]24OO3` [WZ-06, (3R,5aS,6R,8aS,9R,10S,12R,12aR)-3,6,9-trimethyldecahydro-12H-3,12-epoxy[1,2]dioxepino[4,3-i]isochromen-10-yl 4-(((S)-4-(tert-butylamino)-1,4-dioxo-1-((2-(4-phenylpicolinamido)ethyl)amino)butan-2-yl)amino)-4-oxobutanoate], the concentration giving a half-maximal response (EC50) in assay [4] stood at 3.6 ± 0.01 nM. Besides, the values for the IC50 at human i-20S β5i [5] and against Pf20S β5 [6] were 1100 nM and 13.5 ± 7.6 nM, respectively.

(Values after doi:10.1101/2021.06.21.449268v1 (biorxiv, 2021).)
